Reference: patent publication US7250401B2, “Therapeutic compositions” (Advanced Therapeutics and Diagnostics, LC, priority 2001, dated 2007)

Assay: Reaction with thionitrobenzoate (detection of thiol-reactive substances, loss of absorbance at 412 nm)
Assay type: physicochemical
Conditions: for rate of reaction with thionitrobenzoate: aqueous solution at pH 7 and 25° C.
Description: A stock solution of 5-thio-2-nitrobenzoate (hereafter referred to as thionitrobenzoate) was prepared by reduction of 5,5′-dithiobis(2-nitrobenzoic acid) (hereafter referred to as DTNB, Aldrich Chemical Company). This stock solution was prepared by mixing 0.1 ml of 0.1 M DTNB dissolved in ethanol (396 mg of DTNB in 10 ml of ethanol), 0.1 ml of 1 M aqueous potassium phosphate buffer (prepared by mixing equal volumes of 1 M monobasic potassium phosphate with 1 M dibasic potassium phosphate), and 0.025 ml of 1 M sodium borohydride dissolved in 1 M NaOH on ice. After incubating this mixture for 10 minutes at ice temperature, 0.1 mL of 1 M monobasic potassium phosphate was added and the resultant solution was diluted to a final volume of 2 ml by addition of 1.675 ml of water.
An alternate method for preparation of a stock solution of thionitrobenzoate involves the use of 2-mercaptoethanol as reductant, in place of sodium borohydride. In this method a 10 mM solution of DTNB was prepared by mixing 39.6 mg of DTNB with 17 mg of sodium bicarbonate and 4 ml of ice-cold water. After allowing the effervescence to subside, this solution was mixed with 0.01 ml of 0.5 M trisodium ethylenediaminetetracetate and 0.1 ml of 1 M potassium phosphate buffer, then diluted to a final volume of 10 ml with water. A separate stock of 10 mM 2-mercaptoethanol was prepared by dilution of neat 2-mercaptoethanol (14.3 M) with water (serial dilution of 0.01 ml of neat 2-mercaptoethanol to 1 ml to give 0.143 M and then dilution of 0.07 ml of this solution to a final volume of 1 ml to give 10 mM). The stock of 8.7 mM thionitrobenzoate was prepared by mixing 2 ml of 1 M potassium phosphate buffer with 0.2 ml of 10 mM 2-mercaptoethanol and 0.1 ml of 10 mM aqueous DTNB.
If 0.01 ml of the 10 mM stock of thionitrobenzoate, obtained by sodium borohydride reduction of DTNB, was diluted with 0.89 ml of water and 0.1 ml of 1 M phosphate buffer, it gave an absorbance at 412 nm of 1.36 in a 1 cm pathlength cuvette. If 0.01 ml of the 8.7 mM stock of thionitrobenzoate obtained by 2-mercaptoethanol reduction of DTNB was diluted with 0.89 ml of water and 0.1 ml of 1 M phosphate buffer, it gave an absorbance at 412 nm of 1.18 in a 1 cm pathlength cuvette. […] (4 M^−1 s^−1).
(<0.05 M^−1 s^−1). DECOSMe (EXAMPLE 4) reacted with thionitrobenzoate under these conditions at a rate of 4 M^−1 s^−1. DETC-MeSO2 (EXAMPLE 5) reacted with thionitrobenzoate under these conditions at a rate of 0.4 M^−1 s^−1. S-Methyl-O-(N,N-diethylcarbamoyl)sulfinate (DECO2SMe, prepared by rearrangement of DETC-MeSO2 under the conditions described in EXAMPLE 4) reacted with thionitrobenzoate under these conditions at a rate of 14 M^−1 s^−1.

| SMILES | half time of first-order decay of absorbance at 412 nm (0.01 ml of 0.1 M aqueous solution added to thionitrobenzoate assay mixture, 25° C.) [min] | rate of reaction with thionitrobenzoate (from first-order decay of absorbance at 412 nm) (0.01 ml of 0.1 M aqueous solution added, 25° C.) [M⁻¹ s⁻¹] | rate of reaction with thionitrobenzoate [M⁻¹ s⁻¹] | rate of reaction with thionitrobenzoate, prior to rearrangement to DECOSMe (0.01 ml of 5 mM aqueous solution, freshly synthesized, anaerobic conditions, up to 24 hours) |
| --- | --- | --- | --- | --- |
| CCN(CC)C(=O)OSC [DECOSMe, S-Methyl-O-(N,N-Diethylcarbamoyl)Sulfenate] | 2.9 | 4 | 4 |  |
| CCN(CC)C(=O)S(C)(=O)=O [DETC-MeSO2, S-Methyl-N,N-Diethylthiolcarbamate Sulfone] |  |  | 0.4 |  |
| CCN(CC)C(=O)[S+](C)[O-] (stereo not drawn) [DETC-MeSO, S-Methyl-N,N-Diethylthiolcarbamate Sulfoxide] |  |  |  | less than 0.01 M^−1 s^−1 |
| CCN(CC)C(=O)OS(C)=O (stereo not drawn) [DECO2SMe, S-Methyl-O-(N,N-diethylcarbamoyl)sulfinate] |  |  | 14 |  |
